These results are taken from PubChem BioAssay (NCI).

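All cell lines were grown in 96-well plates and treated with compound for 48 hours. The concentration for full growth arrest is given as TGI.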

Test systems include SNB-75 CNS; NCI-H522 lung; 786-0 renal; OVCAR-3 ovarian; HS 578T breast; CCRF-CEM leukemia; KM12 colon; EKVX NSCLC; M14 melanoma; A549 NSCLC; HOP-92 NSCLC; NCI-H23 lung; RXF 393 renal; OVCAR-4 ovarian; HCC-2998 colon; SF-539 CNS; MDA-MB-435; SK-MEL-2 melanoma; DU-145 prostate; HCT-15 colon.
Holding throughout (assay): inhibition of tumour cell growth, NCI panel, 48 h

Take `Cc1ccnc2c1ccc1nc3ccccc3n12`: the TGI in the assay with SNB-75 CNS is greater than 100 µM; in the assay on NCI-H522 lung, 44.5 µM; with 786-0 renal, greater than 100 µM; in the assay on OVCAR-3 ovarian, greater than 100 µM; in the assay on HS 578T breast it was greater than 100 µM; in the assay on CCRF-CEM leukemia, greater than 100 µM. In addition, the TGI in the assay on KM12 colon, with EKVX NSCLC, with M14 melanoma, with A549 NSCLC, in the assay on HOP-92 NSCLC and with NCI-H23 lung was greater than 100 µM throughout. The TGI in the assay with RXF 393 renal, with OVCAR-4 ovarian, in the assay on HCC-2998 colon, in the assay on SF-539 CNS, in the assay with MDA-MB-435 and in the assay on SK-MEL-2 melanoma was greater than 100 µM throughout. Also, the TGI in the assay with DU-145 prostate was greater than 100 µM.
For the compound `COc1cc(C2S/C(=C/c3ccccc3)C(=O)N2c2ccc([N+](=O)[O-])cc2)cc(OC)c1OC` (configuration not stated), the TGI with SNB-75 CNS, in the assay on NCI-H522 lung, in the assay with 786-0 renal, with OVCAR-3 ovarian, in the assay on HS 578T breast and in the assay with CCRF-CEM leukemia was greater than 100 µM each time. The TGI in the assay with KM12 colon, in the assay on EKVX NSCLC, in the assay with M14 melanoma, in the assay with A549 NSCLC, with HOP-92 NSCLC and with NCI-H23 lung was greater than 100 µM throughout. For the same compound, the TGI in the assay with RXF 393 renal, in the assay with OVCAR-4 ovarian, in the assay on HCT-15 colon, with HCC-2998 colon, with SF-539 CNS and in the assay on MDA-MB-435 was greater than 100 µM in each case. The TGI is greater than 100 µM in the assay on SK-MEL-2 melanoma and greater than 89.1 µM with DU-145 prostate.
In the case of `O=Cc1ccc2c(c1)CC1(C2)Cc2ccc(C=O)cc2C1`, the TGI with SNB-75 CNS is greater than 100 µM; in the assay with NCI-H522 lung, 54.9 µM; in the assay with 786-0 renal, 32 µM; in the assay on OVCAR-3 ovarian it was 34.1 µM; in the assay on HS 578T breast, 28.7 µM; in the assay on CCRF-CEM leukemia it was 5.9 µM. Moreover, the TGI in the assay with KM12 colon was 60.4 µM; in the assay with EKVX NSCLC, greater than 100 µM; in the assay with M14 melanoma, 19.7 µM; with A549 NSCLC, greater than 95.3 µM; with HOP-92 NSCLC, 53.2 µM; with NCI-H23 lung, 49.8 µM. Besides, the TGI with RXF 393 renal was greater than 25.4 µM; in the assay on OVCAR-4 ovarian it was greater than 69.7 µM; in the assay with HCT-15 colon, greater than 46.6 µM; in the assay on HCC-2998 colon, greater than 91.8 µM; in the assay on SF-539 CNS, 15.1 µM; in the assay with MDA-MB-435, 6.15 µM. The TGI in the assay with SK-MEL-2 melanoma was 30.8 µM; in the assay with DU-145 prostate it was greater than 100 µM.
Consider `Nc1c(Cl)c([N+](=O)[O-])cc2c1OCCCCO2`, for which the TGI is 93 µM in the assay on SNB-75 CNS; 5.28 µM in the assay with NCI-H522 lung; greater than 100 µM with 786-0 renal; greater than 100 µM with OVCAR-3 ovarian; greater than 100 µM with HS 578T breast; greater than 100 µM with CCRF-CEM leukemia. Also, the TGI in the assay with KM12 colon, with EKVX NSCLC, in the assay on M14 melanoma, in the assay on A549 NSCLC, with HOP-92 NSCLC and in the assay with NCI-H23 lung was greater than 100 µM throughout. Besides, the TGI in the assay on RXF 393 renal, with OVCAR-4 ovarian, in the assay with HCT-15 colon, in the assay with HCC-2998 colon, with SF-539 CNS and in the assay with MDA-MB-435 was greater than 100 µM throughout. Further, the TGI in the assay with SK-MEL-2 melanoma and with DU-145 prostate was greater than 100 µM throughout.
As for `C#C[C@]1(O)CC[C@H]2[C@@H]3CCC4=C/C(=N\OCCN5CCCC5)CC[C@]4(C)[C@H]3CC[C@@]21C`, the TGI turned out to be 24.7 µM in the assay on SNB-75 CNS; 12 µM with NCI-H522 lung; 24.4 µM with 786-0 renal; 27.1 µM in the assay on OVCAR-3 ovarian; 21.7 µM with HS 578T breast; 51.6 µM with CCRF-CEM leukemia. In addition, the TGI was 19.6 µM with KM12 colon; 38.1 µM in the assay on EKVX NSCLC; 22.5 µM in the assay on M14 melanoma; greater than 59.8 µM in the assay on A549 NSCLC; greater than 100 µM with HOP-92 NSCLC; 31.3 µM in the assay on NCI-H23 lung. Besides, the TGI in the assay on RXF 393 renal is greater than 39.9 µM; in the assay with OVCAR-4 ovarian it was greater than 62.1 µM; with HCT-15 colon, 35 µM; in the assay with HCC-2998 colon, 34.5 µM; in the assay on SF-539 CNS it was 28.2 µM; with MDA-MB-435 it was 15 µM. Besides, the TGI with SK-MEL-2 melanoma came out at 24.4 µM; with DU-145 prostate, 41 µM.
With `CCCCCNC1=CC(=O)c2ccccc2C1=O`, the TGI in the assay with SNB-75 CNS was 49.4 µM; in the assay with NCI-H522 lung, 44.3 µM; in the assay on 786-0 renal it was 38.9 µM; with OVCAR-3 ovarian it was 65 µM; with HS 578T breast, greater than 81.3 µM; in the assay with CCRF-CEM leukemia it was greater than 100 µM. For the same compound, the TGI is greater than 100 µM in the assay on KM12 colon; greater than 100 µM in the assay on EKVX NSCLC; greater than 100 µM with M14 melanoma; greater than 100 µM with A549 NSCLC; 59.1 µM with HOP-92 NSCLC; 58.3 µM in the assay on NCI-H23 lung. Besides, the TGI was 47.3 µM in the assay with RXF 393 renal; greater than 100 µM with OVCAR-4 ovarian; greater than 100 µM in the assay with HCT-15 colon; greater than 100 µM in the assay with HCC-2998 colon; 41 µM in the assay with SF-539 CNS; greater than 100 µM in the assay on MDA-MB-435. The TGI is 53.6 µM with SK-MEL-2 melanoma and greater than 100 µM in the assay on DU-145 prostate.
With `C/C(=C/CNc1ncnc2c1ncn2CCC#N)CO`, the TGI with SNB-75 CNS, in the assay on NCI-H522 lung, in the assay on 786-0 renal, with OVCAR-3 ovarian, in the assay with HS 578T breast and in the assay on CCRF-CEM leukemia was greater than 100 µM each time. The TGI in the assay on KM12 colon, in the assay with EKVX NSCLC, in the assay with M14 melanoma, in the assay with A549 NSCLC, in the assay with HOP-92 NSCLC and in the assay with NCI-H23 lung was greater than 100 µM each time. Also, the TGI with RXF 393 renal, in the assay on OVCAR-4 ovarian, with HCC-2998 colon, in the assay on SF-539 CNS, in the assay on MDA-MB-435 and in the assay with DU-145 prostate was greater than 100 µM each time.
